Values of other authors in US20140230258A1, “COMPACT HAND HELD DEVICE” (The Gillette Company, priority 2013, published 2014).

Details: organism not stated

## CCCCCCCCn1sc(Cl)c(Cl)c1=O [4,5-dichloro-2-n-octyl-4-isothiazolin-3-one]
  MIC: about 50 ppm
